Measured values: patent US20190327974A1, “SYNERGISTS FOR IMPROVED PESTICIDES” (priority 2017, published 2019)
Substitutions are numbered along the chain they refer to. Marks after values point to notes of the source that are not given here.

What was measured:
wildtype LcαE7 = biological target: T1, wildtype LcαE7 (Lucilia cuprina, UniProt Q25252); assay: Enzyme inhibition assay with 4-nitrophenol butyrate, wild-type; type: biochemical
T1 sequence (Q25252 1-570): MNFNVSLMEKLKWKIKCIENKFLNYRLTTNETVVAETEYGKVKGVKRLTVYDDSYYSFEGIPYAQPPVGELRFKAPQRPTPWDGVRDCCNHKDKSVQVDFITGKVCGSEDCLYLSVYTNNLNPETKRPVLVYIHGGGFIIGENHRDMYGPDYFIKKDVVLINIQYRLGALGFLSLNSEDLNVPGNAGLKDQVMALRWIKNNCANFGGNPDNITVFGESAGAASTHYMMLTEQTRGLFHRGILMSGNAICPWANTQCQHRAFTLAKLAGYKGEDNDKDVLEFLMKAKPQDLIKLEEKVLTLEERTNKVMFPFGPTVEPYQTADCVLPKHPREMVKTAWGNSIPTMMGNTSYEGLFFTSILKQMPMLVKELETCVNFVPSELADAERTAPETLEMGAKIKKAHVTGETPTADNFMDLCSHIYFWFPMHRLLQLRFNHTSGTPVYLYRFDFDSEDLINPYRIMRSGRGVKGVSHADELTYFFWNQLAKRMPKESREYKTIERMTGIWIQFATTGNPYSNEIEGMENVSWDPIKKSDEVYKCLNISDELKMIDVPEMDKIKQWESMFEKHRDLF
Procedure: Wild-type LcαE7 was heterologously expressed in Escherichia coli and purified using metal ion affinity and size exclusion chromatography. The potency of the boronic acids was determined by enzymatic assays of recombinant LcαE7 with the model carboxylester substrate 4-nitrophenol butyrate.
(§1) Inhibition of wild-type αE7 and the Gly137Asp αE7 variant was determined by a competition assay between the native-substrate analogue 4-nitrophenol butyrate (Sigma) and the boronic acid compounds. Initially, the Michalis constant (KM) with 4-nitrophenol butyrate was measured for both enzymes to determine an appropriate concentration of substrate for use in the competition assays. Formation of the 4-nitrophenolate product of hydrolysis was monitored at 405 nm in the presence of enzyme and eight different concentrations of substrate. 4-nitrophenol butyrate was prepared in methanol to 100 mM and serially diluted 1-in-2 to achieve concentrations from 100 mM to 0.8 mM. Enzyme stocks were prepared in 4 mg/ml bovine serum albumin (Sigma) to maintain enzyme stability. Reactions were prepared by pipetting 178 μl assay buffer (100 mM NaCl, 20 mM HEPES pH 7.5) and 2 μl substrate (final concentrations of 1000 to 8 μM) into 300 μl wells of a 96-well plate. The reaction was initiated by the addition of 20 μl enzyme (final concentration 2.5 nM for wildtype αE7 and 4 nM for Gly137Asp αE7). Product formation was monitored for four minutes at room temperature using an Epoch microplate spectrophotometer (BioTek) and the initial rates of ester hydrolysis were determined by linear regression using GraphPad Prism. The Michalis constant was determined by fitting the initial rates to the Michalis-Menton equation (FIG. 10).
(§2) Enzyme inhibition with the boronic acid compounds was determined by assaying the initial rate of 4-nitrophenol butyrate hydrolysis in the presence of either neat DMSO or the boronic acid compounds in DMSO. Compounds were prepared by serially diluting 1-in-3 an initial 10 mM stock to achieve concentrations from 10 mM to 2 nM. Reactions were prepared by pipetting 178 μl assay buffer supplemented with substrate to a final concentration equal to the KM of the enzyme (15 μM for wildtype αE7 and 250 μM for Gly137Asp αE7) into wells of a 96-well plate. 2 μl neat DMSO or 2 μl serially diluted inhibitor (final concentrations of 100 μM to 20 pM) were added to the wells. The reaction was initiated by the addition of 20 μl enzyme (final concentration 0.5 nM for wildtype αE7 and 10 nM for Glyl37Asp αE7). Product formation was monitored for four minutes at room temperature and the initial rates of ester hydrolysis were determined by linear regression. To determine the concentration of boronic acid compounds required to inhibit 50% of esterase activity (IC50), a four-parameter sigmoidal dose-response curve was fitted to percentage inhibition using GraphPad Prism (FIGS. 7 and 8). Ki values were determined using the Cheng-Prusoff equation assuming competitive inhibition (Yung-Chi, C. & Prusoff W. H. Relationship between the inhibition constant (KI) and the concentration of inhibitor which causes 50 percent inhibition (150) of an enzymatic reaction. Biochem. Pharmacol. 22, 3099-3108 (1973)).

Gly137Asp LcαE7 = biological target: T2, Gly137Asp LcαE7 (Lucilia cuprina, UniProt Q25252, G137D); assay: Enzyme inhibition assay with 4-nitrophenol butyrate, Gly137Asp variant; type: biochemical
T2 sequence (Q25252 1-570 G137D): T1 sequence (Q25252 1-570) with G137D
Procedure: as §1, §2
The two most common CBE-mediated insecticide resistance mechanisms involve increased protein expression, or mutation to gain new catalytic (OP-hydrolase) functions. Compounds 1 to 5 were tested against the resistance associated Gly137Asp variant of LcαE7^17,27 (Table 1). The Glyl37Asp mutation is located in the oxyanion hole and positions a new general base in the active site to catalyze dephosphorylation of the catalytic serine. Thus, compounds that inhibit WT LcαE7 as well as this common resistance associated Glyl37Asp variant would increase the efficacy of OPs by targeting both detoxification routes. Encouraged by the activity of the boronic acids 1 to 5, the compounds were tested against the Gly137Asp variant of LcαE7 (Table 1).

[1] = biological target: T3, Gly137Asp LcαE7 (Gly137Asp variant of αE7 carboxylesterase) (Lucilia cuprina, UniProt Q25252, G137D); assay: Inhibition of Gly137Asp αE7 (competition assay, hydrolysis of 4-nitrophenol butyrate), dose-response curves of FIG. 8; type: biochemical
T3 construct: GenBank number is of the wild-type parent
Procedure: FIG. 8 presents dose-response curves for the inhibition of Glyl37Asp αE7. Inhibition of the hydrolysis of […] was determined for phenyl boronic acid (PBA) and compounds 1-5 and 3.1-3.12. Three (technical) replicate measurements of enzyme activity were performed for each concentration of boronic acid. The concentration of boronic acid required to inhibit 50% of activity (IC50) was determined by fitting a sigmoidal dose-response curve to plots of percentage inhibition. The curve was constrained to 0 (bottom) and 100% (top) inhibition with a variable Hill slope. […]
His6-tagged proteins were expressed in BL21(DE3) E. coli (Invitrogen) at 26° C. for 18 hours. Cells were collected by centrifugation, resuspended in lysis buffer (300 mM NaCl, 10 mM imidazole, 50 mM HEPES pH 7.5) and lysed by sonication. Cell debris was pelleted by centrifugation and the soluble fraction was loaded onto a HisTrap-HP Ni-Sepharose column (GE Healthcare). Bound protein was eluted with lysis buffer supplemented with 300 mM imidazole. Fractions containing the eluted protein were concentrated with a 30 kDa molecular mass cutoff centrifuge concentrator (Amicon) and loaded onto a HiLoad 26/60 Superdex-200 size-exclusion column (GE Healthcare) pre-equilibrated with 150 mM NaCl, 20 mM HEPES pH 7.5. Eluted fractions containing the monomeric protein were pooled for enzyme inhibition assays or crystallization. Protein concentration was determined by measuring the absorbance at 280 nm with an extinction coefficient calculated using the Protparam online server (Gasteiger, E. et al. Protein identification and analysis tools on the ExPASy server. Proteomics Protoc. Handb. 571-607 (2005). doi:10.1385/1-59259-890-0:571).
as §1
Enzyme inhibition with the boronic acid compounds was determined by assaying the initial rate of 4-nitrophenol butyrate hydrolysis in the presence of either neat DMSO or the boronic acid compounds in DMSO. Compounds were prepared by serially diluting 1-in-3 an initial 10 mM stock to achieve concentrations from 10 mM to 2 nM. Reactions were prepared by pipetting 178 μl assay buffer supplemented with substrate to a final concentration equal to the KM of the enzyme (15 μM for wildtype αE7 and 250 μM for Gly137Asp αE7) into wells of a 96-well plate. 2 μl neat DMSO or 2 μl serially diluted inhibitor (final concentrations of 100 μM to 20 pM) were added to the wells. The reaction was initiated by the addition of 20 μl enzyme (final concentration 0.5 nM for wildtype αE7 and 10 nM for Glyl37Asp αE7). […]

Anopheles gambiae CBE = assay: Inhibition of insect CBEs, 4-NPB substrate; type: biochemical; details: n=3
Procedure: (§3) Assays were performed with 4-NPB as the substrate.

[2] = biological target: Culex quinquefasciatus CBE (Culex quinquefasciatus, UniProt Q23734); assay: Inhibition of insect CBEs, 4-NPB substrate; type: biochemical; details: n=3
Procedure: as §3

Aedes aegypti CBE = assay: Inhibition of insect CBEs, 4-NPB substrate; type: biochemical; details: n=3
Procedure: as §3

[3] = system: Lucilia cuprina larvae, laboratory drug-susceptible strain LS; assay: Lucilia cuprina larval bioassay (pupation rate), laboratory strain; type: in vivo; details: laboratory (LS) strain; pupation rate; boronic acid, where present, at 1 mg/assay
Procedure: Inhibitor efficacy was determined by treating larvae with diazinon over a range of concentrations, in the presence or absence of the compounds at constant concentrations, and comparing pupation rates.
(§4) Two strains of L. cuprina were used: 1) a laboratory reference drug-susceptible strain, LS, derived from collections in the Australian Capital Territory over 40 years ago, with no history of exposure to insecticides; and 2) a field-collected strain, Tara, resistant to diazinon and diflubenzuron (Levot, G. W. & Sales, N. New high level resistance to diflubenzuron detected in the Australian sheep blowfly, Lucilia cuprina (Wiedemann) (Diptera: Calliphoridae). Gen. Appl. Entomol. 31, 43-46 (2002)). The LcαE7 gene was sequenced in each of the strains. Briefly, genomic DNA was prepared from 20 adult female flies from each strain using the DNeasy Blood and Tissue kit (Qiagen). PCR was performed with primers specific to the LcαE7 gene, and the product was cloned into a pGEM-T EASY vector (Promega). Eight clones of the susceptible strain and 10 clones of the resistant strain were sequenced using M13 forward and reverse primers.
Each experiment utilized 50 larvae at each diazinon/malathion concentration. Experiments were replicated three times for diazinon, and twice for malathion. The insecticidal effects were defined by measuring the pupation rate. […] Compounds were also without diazinon or malathion at 1 mg per assay.

[4] = system: Lucilia cuprina larvae, field strain Tara resistant to diazinon; assay: Lucilia cuprina larval bioassay (pupation rate), field strain; type: in vivo
From the text: Diazinon resistance is typically associated with the Gly137Asp mutation/resistance allele. […] This is consistent with previous results showing that duplications of the chromosomal region containing αE7 have occurred, meaning that resistant strains now carry copies of both WT and Glyl37Asp LcαE7.
as §4
The effect of compounds 2, 3, 5, 3.9 and 3.10 on the development of blowfly larvae in the presence of diazinon/malathion was assessed using a bioassay system in which larvae were allowed to develop from the first instar stage until pupation on cotton wool impregnated with diazinon/malathion over a range of concentrations, in the presence or absence of the compounds at constant concentrations (Kotze, A. C. et al. Histone deacetylase enzymes as drug targets for the control of the sheep blowfly, Lucilia cuprina. Int. J. Parasitol. Drugs Drug Resist. 5, 201-208 (2015)). Each experiment utilized 50 larvae at each diazinon/malathion concentration. Experiments were replicated three times for diazinon, and twice for malathion. The insecticidal effects were defined by measuring the pupation rate. […] Compounds were also without diazinon or malathion at 1 mg per assay.

Structure (SMILES)	Ki (Anopheles gambiae CBE)	Ki [2]	Ki (Aedes aegypti CBE)	also measured
OB(O)c1cc(Cl)cc(N2CCCC2)c1 [Compound 3.2]				Ki (wildtype LcαE7): 0.35 nM; Ki (Gly137Asp LcαE7): 210 nM; IC50 [1]: 400 nM
O=C(Nc1ccccc1Cl)c1cc(B(O)O)ccc1Cl [Compound C2]	420 nM	3600 nM	37000 nM	
CCOC(=O)CC(SP(=S)(OC)OC)C(=O)OCC (centres unmarked) [Mal alone, malathion, reference compound]				Malathion dose response EC50 [3]: 2.06 μg/assay
CCOP(=S)(OCC)Oc1cc(C)nc(C(C)C)n1 [Dz alone, diazinon]				Diazinon dose response EC50 [3]: 0.80 μg/assay; RR = resistance ratio ([4]; EC50 with the field strain/EC50 for Dz alone for the laboratory strain): 2.86 ^#; diazinon EC50 for the field strain compared to the laboratory strain ([4]; absence of the boronic acids, fold higher): 2.9 fold; Diazinon dose response EC50 ([4]; field (Tara) strain, pupation rate, boronic acid, where present, at 1 mg/assay): 2.29 μg/assay
OB(O)c1cc2ccc(OCc3ccccc3)cc2[nH]1 [Compound C10]	80 nM	190 nM	10 nM	
OB(O)c1ccc(COc2ccc(Cl)c3ccccc23)cc1 [Compound C21]	200 nM	140 nM	10000 nM	
